In ChEMBL document CHEMBL1201862, “PubChem BioAssay data set” (2004):
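Dose response: 5 concentrations. Exposure: 48 h. Format: 96-well plates. Endpoint: linear interpolation; highest concentration if not reached. The concentration for 50% growth inhibition is given as GI50.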 Active and inactive are the calls of the source. Cut-off read from the data, not from the text of the source: active = GI50 up to about 1.1 µM and inactive = higher.

Legend:
Assay in all cases: growth of human tumour cells (NCI), 48 h
[1] = system: MDA-N
[2] = system: OVCAR-5
[3] = system: OVCAR-8
[4] = system: MDA-MB-435
[5] = system: SK-MEL-2
[6] = system: 786-0
[7] = system: SW-620
[8] = system: MCF7
[9] = system: A549
[10] = system: NCI/ADR-RES
[11] = system: RXF 393
[12] = system: IGROV-1
[13] = system: HT-29
[14] = system: OVCAR-3
[15] = system: SK-MEL-28
[16] = system: SN12C
[17] = system: SK-OV-3
[18] = system: SF-295
[19] = system: BT-549
[20] = system: HCT-116
[21] = system: Hs-578T
[22] = system: DU-145
[23] = system: OVCAR-4
[24] = system: M14
[25] = system: CCRF-CEM
[26] = system: NCI-H522
[27] = system: COLO 205
[28] = system: PC-3
[29] = system: MDA-MB-231
[30] = system: SF-268
[31] = system: HOP-62
[32] = system: SK-MEL-5
[33] = system: ACHN
[34] = system: MOLT-4
[35] = system: Malme-3M
[36] = system: HCC 2998
[37] = system: NCI-H460
[38] = system: A498
[39] = system: EKVX
[40] = system: UO-31
[41] = system: KM12
[42] = system: U-251
[43] = system: RPMI-8226
[44] = system: CAKI-1
[45] = system: HOP-92
[46] = system: K562
[47] = system: TK-10
[48] = system: LOX IMVI
[49] = system: HCT-15
[50] = system: T47D
[51] = system: SNB-19
[52] = system: UACC-62
[53] = system: NCI-H23
[54] = system: NCI-H226
[55] = system: HL-60
[56] = system: SF-539
[57] = system: SNB-75
[58] = system: UACC-257
[59] = system: SR

Measured: GI50

CCN(CC)CCn1ncc2c(N)ncnc21
> 100 µM: [49]
inactive: [1] > 100 µM | [2] > 100 µM | [3] > 100 µM | [4] > 100 µM | [5] > 100 µM | [6] > 100 µM | [7] > 100 µM | [8] > 100 µM | [9] > 100 µM | [10] > 100 µM | [11] > 100 µM | [12] > 100 µM | [13] > 100 µM | [14] > 100 µM | [15] > 100 µM | [16] > 100 µM | [17] > 100 µM | [18] > 100 µM | [19] > 100 µM | [20] > 100 µM | [21] > 100 µM | [22] > 100 µM | [23] > 100 µM | [24] > 100 µM | [25] 34.7 µM | [26] > 100 µM | [27] > 100 µM | [28] > 100 µM | [29] > 100 µM | [30] > 100 µM | [31] > 100 µM | [32] > 100 µM | [33] > 100 µM | [34] > 100 µM | [35] > 100 µM | [36] > 100 µM | [37] > 100 µM | [38] > 100 µM | [39] > 100 µM | [40] > 100 µM | [41] > 100 µM | [42] > 100 µM | [43] > 100 µM | [44] > 100 µM | [45] > 100 µM | [46] > 100 µM | [47] > 100 µM | [48] > 100 µM | [50] > 100 µM | [51] > 100 µM | [52] > 100 µM | [53] > 100 µM | [54] > 100 µM

Cc1c(C)c(C)c(-n2c(=O)n(C)c(=O)n2C(C)(C)C)c(C)c1C
inactive: [1] > 100 µM | [2] > 100 µM | [4] > 100 µM | [5] > 100 µM | [6] > 100 µM | [55] 40.3 µM | [7] > 100 µM | [56] > 100 µM | [8] > 100 µM | [9] > 100 µM | [11] > 100 µM | [14] > 100 µM | [15] > 100 µM | [16] > 100 µM | [17] > 100 µM | [18] > 100 µM | [19] > 100 µM | [20] > 100 µM | [21] > 100 µM | [22] > 100 µM | [23] > 100 µM | [57] > 100 µM | [24] > 100 µM | [58] > 100 µM | [25] 38 µM | [27] > 100 µM | [28] > 100 µM | [59] 85.9 µM | [29] > 100 µM | [30] > 100 µM | [32] > 100 µM | [33] > 100 µM | [34] > 100 µM | [36] > 100 µM | [37] > 100 µM | [38] > 100 µM | [40] > 100 µM | [41] > 100 µM | [42] > 100 µM | [43] 89.5 µM | [44] > 100 µM | [45] > 100 µM | [46] 81.1 µM | [47] > 100 µM | [48] > 100 µM | [50] > 100 µM | [51] > 100 µM | [52] > 100 µM | [53] > 100 µM
> 100 µM: [49]

Brc1ccc(-c2nc(-c3ccc(Br)cc3)n(-c3ccccc3)n2)cc1
inactive: [1] > 100 µM | [2] > 100 µM | [3] > 100 µM | [4] 46.7 µM | [5] > 100 µM | [6] > 100 µM | [55] 34.8 µM | [7] > 100 µM | [56] > 100 µM | [8] > 100 µM | [9] 61.8 µM | [10] > 100 µM | [12] > 100 µM | [13] 26.9 µM | [14] > 100 µM | [15] > 100 µM | [16] > 100 µM | [17] > 100 µM | [18] > 100 µM | [19] > 100 µM | [20] 38 µM | [21] > 100 µM | [22] > 100 µM | [23] > 100 µM | [57] 54.3 µM | [24] > 100 µM | [58] 81.1 µM | [25] 20.6 µM | [26] 39 µM | [27] 27.2 µM | [28] > 100 µM | [29] > 100 µM | [30] > 100 µM | [31] > 100 µM | [32] > 100 µM | [33] > 100 µM | [34] 53.7 µM | [37] > 100 µM | [38] > 100 µM | [39] 85.5 µM | [40] > 100 µM | [41] 49.5 µM | [42] > 100 µM | [44] > 100 µM | [45] > 100 µM | [47] > 100 µM | [48] > 100 µM | [50] 12.9 µM | [51] > 100 µM | [52] > 100 µM | [53] > 100 µM | [54] > 100 µM
> 100 µM: [49]

CC1=NNC(=O)C1C1(C(=O)O)CC(c2c[nH]c3ccccc23)=NC(=S)N1 (configuration not stated)
inactive: [1] 37.3 µM | [2] > 100 µM | [3] 39.4 µM | [4] 35.5 µM | [5] 18.4 µM | [6] 28.3 µM | [55] 38.3 µM | [7] 38.5 µM | [56] 24.5 µM | [9] 37.7 µM | [10] 46.8 µM | [11] 28.1 µM | [13] 26.3 µM | [14] 18.5 µM | [15] 47.1 µM | [16] 40 µM | [17] 32.1 µM | [18] 19.4 µM | [19] 96.4 µM | [20] 32.8 µM | [21] 15.2 µM | [22] 35.6 µM | [57] 16.6 µM | [24] 16.9 µM | [58] 27.6 µM | [25] 27.2 µM | [26] 20 µM | [27] 17.1 µM | [28] 27.5 µM | [29] 24.3 µM | [30] 32.1 µM | [31] 20 µM | [32] 14.4 µM | [33] 33.5 µM | [34] 19.4 µM | [35] 19 µM | [37] 22.8 µM | [38] 94.8 µM | [39] 20 µM | [40] 29.8 µM | [41] 15.2 µM | [42] 26 µM | [43] 24.9 µM | [44] 43.5 µM | [45] 22.3 µM | [46] 25.4 µM | [47] > 100 µM | [48] 17.5 µM | [50] 29 µM | [51] 29.3 µM | [52] 41.2 µM | [53] 22.1 µM | [54] 10.1 µM
active: [12] 0.224 µM
42.6 µM: [49]
